The data set can be described thus: in vivo pharmacokinetic study in SD rats. Particulars: male, rat, plasma; for bioavailability: 1 mg/kg PO vs 1 mg/kg IV, read-out: Oral bioavailability F (%); for AUC(0-t) / Cmax / half-life: 1 mg/kg. In a few lines:
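Male SD rats (180-200 g), 3 per route: single fasted oral gavage in 1% Tween 80 or tail-vein IV bolus in 50% PEG400. Orbital blood into EDTA-K2 sampled to 8 h; plasma analysed and PK parameters derived by non-compartmental analysis.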

Molecules are shown by their SMILES.

Usually bioavailability stands for dose-corrected exposure relative to a reference, in per cent. Usually AUC(0-t) stands for the area under the concentration-time curve up to a stated or last time point. In general, Cmax refers to the maximum level reached in the sampled fluid or tissue. A word on the half-life: it is the time needed for the level to fall by half in the phase considered. Turning to `CN(C)C(=O)c1nccc(Nc2c(N[C@@H](c3nc(Cl)ccc3F)[C@@]3(C)CC(F)(F)CO3)c(=O)c2=O)c1O` [068B, 4-((2-(((S)-(6-chloro-3-fluoropyridin-2-yl)((R)-4,4-difluoro-2-methyltetrahydrofuran-2-yl)methyl)amino)-3,4-dioxocyclobut-1-en-1-yl)amino)-3-hydroxy-N,N-dimethylpicolinamide], the bioavailability is 23.4%. Also, under “IV”, the AUC(0-t) worked out at 1270 ng·h/mL, the Cmax was 3630 ng/mL and the half-life is 15 min. In addition, under “PO”, the AUC(0-t) worked out at 298 ng·h/mL, the Cmax came to 291 ng/mL and the half-life is 91.8 min.

On to `CN(C)C(=O)c1nccc(Nc2c(N[C@@H](C#CC3CCC3)[C@]3(C)CC(F)(F)CO3)c(=O)c2=O)c1O` (single isomer, unassigned) [110A], for which the bioavailability turned out to be 68.6%. Also, under “IV”, the AUC(0-t) amounted to 580 ng·h/mL, the highest level (Cmax) was 1860 ng/mL and the half-life is 19.2 min. For the setting “PO”, this compound had an AUC(0-t) of 397 ng·h/mL, a Cmax of 311 ng/mL and a half-life of 55.8 min.

For `Cc1cc(F)cnc1[C@H](Nc1c(Nc2ccnc(C(=O)N(C)C)c2O)c(=O)c1=O)[C@]1(C)CC(F)(F)CO1` [093A, 4-((2-(((S)-((S)-4,4-difluoro-2-methyltetrahydrofuran-2-yl)(5-fluoro-3-methylpyridin-2-yl)methyl)amino)-3,4-dioxocyclobut-1-en-1-yl)amino)-3-hydroxy-N,N-dimethylpicolinamide], the bioavailability amounted to 23.7%. Under “IV”, this compound showed an AUC(0-t) of 1240 ng·h/mL, a Cmax of 4840 ng/mL and a half-life of 14.4 min. Where the note is “PO”, this compound gave an AUC(0-t) of 295 ng·h/mL, a Cmax of 271 ng/mL and a half-life of 66 min.

The record behind these values is patent EP4703354A1, “COMPOUND AS CCR6 ANTAGONIST, AND PHARMACEUTICAL COMPOSITION AND USE THEREOF” (Wuhan Createrna Science and Technology Co.,Ltd., priority 2023, dated 2024).
